This is an account of results in patent US20140031278A1, “Novel Glucagon Analogues” (NOVO NORDISK A/S, priority 2011, published 2014).

*1 amine or outer side, *2 acyl side, *3 side chain or, on linkers, in order; H or OH if unused. Where a SMILES comes first, the peptide text is derived from it. Side-chain parts run from the residue outwards. γGlu = O=C(O)[C@H](CCC(=O)[*:2])N[*:1]

Broadly, the EC50 is the concentration needed to bring the measured effect to its halfway point. The low end stands for a more potent agent, the high end for a less potent agent.

In the assay the target is T1, glucagon receptor (Homo sapiens, UniProt P47871).
T1 construct: expressed in transfected cells
T1 sequence (P47871 26-477): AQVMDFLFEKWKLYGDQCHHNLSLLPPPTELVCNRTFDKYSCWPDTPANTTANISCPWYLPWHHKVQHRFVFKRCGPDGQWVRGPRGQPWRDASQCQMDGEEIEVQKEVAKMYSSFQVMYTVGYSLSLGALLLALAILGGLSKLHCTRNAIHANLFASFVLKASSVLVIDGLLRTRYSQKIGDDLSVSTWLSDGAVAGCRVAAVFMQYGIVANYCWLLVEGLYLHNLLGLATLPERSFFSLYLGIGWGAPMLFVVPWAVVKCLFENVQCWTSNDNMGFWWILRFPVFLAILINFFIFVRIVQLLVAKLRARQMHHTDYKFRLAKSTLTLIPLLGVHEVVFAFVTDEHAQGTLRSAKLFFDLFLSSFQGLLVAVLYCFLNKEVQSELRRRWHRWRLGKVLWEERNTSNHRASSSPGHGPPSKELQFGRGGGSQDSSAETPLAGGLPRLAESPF
The assay is described as follows: Assay (I) Glucagon activity (cAMP biosensor, FLIPR). The format is cell-based. The conditions noted are these: HEK-293 cells with cloned glucagon receptor and cAMP biosensor; end point after 6 minutes. As to the method:
The glucagon receptor was cloned into HEK-293 cells having a membrane bound cAMP biosensor (ACTOne™). The cells (14000 per well) were incubated (37° C., 5% CO2) overnight in 384-well plates. Next day the cells were loaded with a calcium responsive dye that only distributed into the cytoplasm. Probenecid, an inhibitor of the organic anion transporter, was added to prevent the dye from leaving the cell. A PDE inhibitor was added to prevent formatted cAMP from being degraded, The plates were placed into a […] and the glucagon analogues were added. End point data were collected after 6 minutes. An increase in intracellular cAMP was proportional to an increased in calcium concentrations in the cytoplasm. When calcium was bound the dry a fluorescence signal was generated. EC50-values were calculated in Prism5.
On to `CC(=O)N[C@@H](CCC(=O)N[C@@H](CCC(=O)N[C@@H](CCC(=O)N[C@@H](CCC(=O)NCCCC[C@H](NC(=O)[C@@H](NC(=O)[C@H](Cc1ccccc1)NC(=O)[C@H](CC(=O)O)NC(=O)[C@H](CCC(N)=O)NC(=O)[C@H](C)NC(=O)[C@H](CCCNC(=N)N)NC(=O)[C@H](CCCNC(=N)N)NC(=O)[C@H](CO)NC(=O)[C@H](CCC(=O)O)NC(=O)[C@H](CC(C)C)NC(=O)[C@H](Cc1ccc(O)cc1)NC(=O)[C@H](CCCCN)NC(=O)[C@H](CO)NC(=O)[C@H](Cc1ccc(O)cc1)NC(=O)[C@H](CC(=O)O)NC(=O)[C@H](CO)NC(=O)[C@@H](NC(=O)[C@H](Cc1ccccc1)NC(=O)[C@@H](NC(=O)CNC(=O)[C@H](CCC(N)=O)NC(=O)[C@H](CO)NC(=O)[C@@H](N)Cc1c[nH]cn1)[C@@H](C)O)[C@@H](C)O)C(C)C)C(=O)N[C@@H](Cc1c[nH]c2ccccc12)C(=O)N[C@@H](CC(C)C)C(=O)N[C@@H](CC(C)C)C(=O)N[C@@H](CC(N)=O)C(=O)N[C@H](C(=O)O)[C@@H](C)O)C(=O)O)C(=O)O)C(=O)O)C(=O)O` [Example 17, N^ε24-[(4S)-4-[[(4S)-4-[[(4S)-4-[[(4S)-4-acetamido-4-carboxybutanoyl]amino]-4-carboxybutanoyl]amino]-4-carboxybutanoyl]amino]-4-carboxybutanoyl]-[Glu15,Lys24,Leu27]-Glucagon], for which the EC50 stood at 16.5 pM.

The compound `CC[C@H](C)[C@H](NC(=O)[C@H](CC(=O)O)NC(=O)[C@H](CC(C)C)NC(=O)[C@H](Cc1ccc(O)cc1)NC(=O)[C@H](CCCCN)NC(=O)[C@H](CO)NC(=O)[C@H](Cc1ccc(O)cc1)NC(=O)[C@H](CC(=O)O)NC(=O)[C@H](CO)NC(=O)[C@@H](NC(=O)[C@H](Cc1ccccc1)NC(=O)[C@@H](NC(=O)CNC(=O)[C@H](CCC(N)=O)NC(=O)[C@H](CO)NC(=O)[C@@H](N)Cc1c[nH]cn1)[C@@H](C)O)[C@@H](C)O)C(=O)N[C@@H](CCCNC(=N)N)C(=O)N[C@@H](CCCNC(=N)N)C(=O)N[C@@H](C)C(=O)N[C@@H](CCC(N)=O)C(=O)N[C@@H](CC(=O)O)C(=O)N[C@@H](Cc1ccccc1)C(=O)N[C@H](C(=O)N[C@@H](CCCCNC(=O)CC[C@H](NC(=O)CC[C@H](NC(=O)CC[C@H](NC(=O)CC[C@H](NC(C)=O)C(=O)O)C(=O)O)C(=O)O)C(=O)O)C(=O)N[C@@H](Cc1c[nH]c2ccccc12)C(=O)N[C@@H](CC(C)C)C(=O)N[C@@H](CC(C)C)C(=O)N[C@@H](CO)C(=O)N[C@H](C(=O)O)[C@@H](C)O)C(C)C` [Example 36, N^ε24-[(4S)-4-[[(4S)-4-[[(4S)-4-[[(4S)-4-acetamido-4-carboxybutanoyl]amino]-4-carboxybutanoyl]amino]-4-carbox[…]ybutanoyl]amino]-4-carboxybutanoyl]-[Ile16,Lys24,Leu27,Ser28]-Glucagon] returned an EC50 of 2.5 pM.

`CC(=O)N[C@@H](CCC(=O)N[C@@H](CCC(=O)N[C@@H](CCC(=O)N[C@@H](CCC(=O)NCCCC[C@H](NC(=O)[C@@H](NC(=O)[C@H](Cc1ccccc1)NC(=O)[C@H](CC(=O)O)NC(=O)[C@H](CCC(N)=O)NC(=O)[C@H](C)NC(=O)[C@H](CCCNC(=N)N)NC(=O)[C@H](CCCNC(=N)N)NC(=O)[C@H](Cc1ccc(O)cc1)NC(=O)[C@H](CC(=O)O)NC(=O)[C@H](CC(C)C)NC(=O)[C@H](Cc1ccc(O)cc1)NC(=O)[C@H](CCCCN)NC(=O)[C@H](CO)NC(=O)[C@H](Cc1ccc(O)cc1)NC(=O)[C@H](CC(=O)O)NC(=O)[C@H](CO)NC(=O)[C@@H](NC(=O)[C@H](Cc1ccccc1)NC(=O)[C@@H](NC(=O)CNC(=O)[C@H](CCC(N)=O)NC(=O)[C@H](CO)NC(=O)[C@@H](N)Cc1c[nH]cn1)[C@@H](C)O)[C@@H](C)O)C(C)C)C(=O)N[C@@H](Cc1c[nH]c2ccccc12)C(=O)N[C@@H](CC(C)C)C(=O)N[C@@H](CC(C)C)C(=O)N[C@@H](CO)C(=O)N[C@H](C(=O)O)[C@@H](C)O)C(=O)O)C(=O)O)C(=O)O)C(=O)O` [Example 37, N^ε24-[(4S)-4-[[(4S)-4-[[(4S)-4-[[(4S)-4-acetamido-4-carboxybutanoyl]amino]-4-carboxybutanoyl]amino]-4-carbox[…]ybutanoyl]amino]-4-carboxybutanoyl]-[Tyr16,Lys24,Leu27,Ser28]-Glucagon] gave a half-maximal effective concentration (EC50) of 3 pM.

Take `CC(=O)N[C@@H](CCC(=O)N[C@@H](CCC(=O)N[C@@H](CCC(=O)N[C@@H](CCC(=O)NCCCC[C@H](NC(=O)[C@@H](NC(=O)[C@H](Cc1ccccc1)NC(=O)[C@H](CC(=O)O)NC(=O)[C@H](CCC(N)=O)NC(=O)[C@H](C)NC(=O)[C@H](CCCNC(=N)N)NC(=O)[C@H](CCCNC(=N)N)NC(=O)[C@H](Cc1ccccc1)NC(=O)[C@H](CC(=O)O)NC(=O)[C@H](CC(C)C)NC(=O)[C@H](Cc1ccc(O)cc1)NC(=O)[C@H](CCCCN)NC(=O)[C@H](CO)NC(=O)[C@H](Cc1ccc(O)cc1)NC(=O)[C@H](CC(=O)O)NC(=O)[C@H](CO)NC(=O)[C@@H](NC(=O)[C@H](Cc1ccccc1)NC(=O)[C@@H](NC(=O)CNC(=O)[C@H](CCC(N)=O)NC(=O)[C@H](CO)NC(=O)[C@@H](N)Cc1c[nH]cn1)[C@@H](C)O)[C@@H](C)O)C(C)C)C(=O)N[C@@H](Cc1c[nH]c2ccccc12)C(=O)N[C@@H](CC(C)C)C(=O)N[C@@H](CC(C)C)C(=O)N[C@@H](CO)C(=O)N[C@H](C(=O)O)[C@@H](C)O)C(=O)O)C(=O)O)C(=O)O)C(=O)O` [Example 35]: the EC50 is 2.8 pM.

As for `CC(=O)N[C@@H](CCC(=O)N[C@@H](CCC(=O)N[C@@H](CCC(=O)N[C@@H](CCC(=O)NCCCC[C@H](NC(=O)[C@@H](NC(=O)[C@H](Cc1ccccc1)NC(=O)[C@H](CC(=O)O)NC(=O)[C@H](CCC(N)=O)NC(=O)[C@H](C)NC(=O)[C@H](CCCNC(=N)N)NC(=O)[C@H](CCCNC(=N)N)NC(=O)[C@H](CC(C)C)NC(=O)[C@H](CC(=O)O)NC(=O)[C@H](CC(C)C)NC(=O)[C@H](Cc1ccc(O)cc1)NC(=O)[C@H](CCCCN)NC(=O)[C@H](CO)NC(=O)[C@H](Cc1ccc(O)cc1)NC(=O)[C@H](CC(=O)O)NC(=O)[C@H](CO)NC(=O)[C@@H](NC(=O)[C@H](Cc1ccccc1)NC(=O)[C@@H](NC(=O)CNC(=O)[C@H](CCC(N)=O)NC(=O)[C@H](C)NC(=O)[C@@H](N)Cc1c[nH]cn1)[C@@H](C)O)[C@@H](C)O)C(C)C)C(=O)N[C@@H](Cc1c[nH]c2ccccc12)C(=O)N[C@@H](CC(C)C)C(=O)N[C@@H](CC(C)C)C(=O)N[C@@H](CO)C(=O)N[C@H](C(=O)O)[C@@H](C)O)C(=O)O)C(=O)O)C(=O)O)C(=O)O` [Example 42] (H-HAQGTFTSDYSKYLDLRRAQDFVK([γGlu-γGlu-γGlu-γGlu-Ac])WLLST-OH), the EC50 came out at 8 pM.

As for `CC(=O)N[C@@H](CCC(=O)N[C@@H](CCC(=O)N[C@@H](CCC(=O)N[C@@H](CCC(=O)NCCCC[C@H](NC(=O)[C@H](CO)NC(=O)[C@H](CC(C)C)NC(=O)[C@H](CC(C)C)NC(=O)[C@H](Cc1c[nH]c2ccccc12)NC(=O)[C@H](CCC(N)=O)NC(=O)[C@@H](NC(=O)[C@H](Cc1ccccc1)NC(=O)[C@H](CC(=O)O)NC(=O)[C@H](CCC(N)=O)NC(=O)[C@H](C)NC(=O)[C@H](CCCNC(=N)N)NC(=O)[C@H](CCCNC(=N)N)NC(=O)[C@H](CO)NC(=O)[C@H](CC(=O)O)NC(=O)[C@H](CC(C)C)NC(=O)[C@H](Cc1ccc(O)cc1)NC(=O)[C@H](CCCCN)NC(=O)[C@H](CO)NC(=O)[C@H](Cc1ccc(O)cc1)NC(=O)[C@H](CC(=O)O)NC(=O)[C@H](CO)NC(=O)[C@@H](NC(=O)[C@H](Cc1ccccc1)NC(=O)[C@@H](NC(=O)CNC(=O)[C@H](CCC(N)=O)NC(=O)[C@H](CO)NC(=O)[C@@H](N)Cc1c[nH]cn1)[C@@H](C)O)[C@@H](C)O)C(C)C)C(=O)O)C(=O)O)C(=O)O)C(=O)O)C(=O)O` [Example 52, N^ε^29-[(4S)-4-[[(4S)-4-[[(4S)-4-[[(4S)-4-acetamido-4-carboxybutanoyl]amino]-4-carboxybutanoyl]amino]-4-carboxybutanoyl]amino]-4-carboxybutanoyl]-[Leu^27,Ser^28,Lys^29]-Glucagon], the response was half-maximal at 10 pM (EC50).

Take `CC(=O)N[C@@H](CCC(=O)N[C@@H](CCC(=O)N[C@@H](CCC(=O)N[C@@H](CCC(=O)NCCCC[C@H](NC(=O)[C@@H](NC(=O)[C@H](Cc1ccccc1)NC(=O)[C@H](CCC(=O)O)NC(=O)[C@H](C)NC(=O)[C@H](C)NC(=O)[C@H](CCCNC(=N)N)NC(=O)[C@H](CCCNC(=N)N)NC(=O)[C@@H](NC(=O)[C@H](CC(=O)O)NC(=O)[C@H](CC(C)C)NC(=O)[C@H](Cc1ccc(O)cc1)NC(=O)[C@H](CCCCN)NC(=O)[C@H](CO)NC(=O)[C@H](Cc1ccc(O)cc1)NC(=O)[C@H](CC(=O)O)NC(=O)[C@H](CO)NC(=O)[C@@H](NC(=O)[C@H](Cc1ccccc1)NC(=O)[C@@H](NC(=O)CNC(=O)[C@H](CCC(N)=O)NC(=O)CNC(=O)[C@@H](N)Cc1c[nH]cn1)[C@@H](C)O)[C@@H](C)O)C(C)C)C(C)C)C(=O)N[C@@H](Cc1c[nH]c2ccccc12)C(=O)N[C@@H](CC(C)C)C(=O)N[C@@H](CC(C)C)C(=O)N[C@@H](CO)C(=O)N[C@H](C(=O)O)[C@@H](C)O)C(=O)O)C(=O)O)C(=O)O)C(=O)O` [Example 49, N^ε24-[(4S)-4-[[(4S)-4-[[(4S)-4-[[(4S)-4-acetamido-4-carboxybutanoyl]amino]-4-carboxybutanoyl]amino]-4-carboxybutanoyl]amino]-4-carboxybutanoyl]-[Gly^2,Val^16,Ala^20,Glu^21,Lys^24,Leu^27,Ser^28]-Glucagon] (H-HGQGTFTSDYSKYLDVRRAAEFVK([γGlu-γGlu-γGlu-γGlu-Ac])WLLST-OH): a half-maximal response (EC50) required 54 pM.
